Values of other authors in US20230257337A1, “METHOD FOR PRODUCING POLYGYLCEROL ESTERS OF POLYCARBOXYLIC ACIDS ESTERIFIED WITH OXOBUTANOL” (IOI Oleo GmbH, priority 2020, published 2023).

Settings: even if several grams are taken

**Q.** With `CC(O)CC(=O)O` (stereo not shown) [3-hydroxybutyric acid] as the molecule, how does the duration of ketosis read?
**A.** The duration of ketosis was “about three to four”.
